Assay results taken from patent publication US20090005419A1, “Organic Compounds” (priority 2005, published 2009).

Biological target: T1, HuRfl (Homo sapiens, UniProt Q15717)
T1 construct: HuRfl full length HuR protein
Experiment: Competition experiments with ARE RNA binding to HuRfl (anisotropy, 2D-FIDA)
Details: dissociation constants from competition experiments with ARE RNA binding to HuRfl; 1:1:1 stoichiometric, competitive inhibition assumed
Protocol: (1) A cellular reporter gene assay with firefly luciferase under control of the IL-2 or TNF-α AU-rich element. This assay is designed to identify cellularly active, non-toxic inhibitors of ARE-mediated mRNA stabilization. The confirmed hits are tested in a control assay with the luciferase CDS under the IL-2 or TNF-α promoter to exclude compounds acting at the transcriptional level. By definition, the identified hit compounds interfere with posttranscriptional stabilization of short-lived ARE mRNAs at some level along the ARE pathway. (2) In vitro screen for HuR-ARE inhibitors using confocal fluctuation spectroscopy. This assay uses 2D-FIDA to monitor binding of HuR12, a shortened variant of HuR to a TMR labeled ARE RNA in solution. Compounds identified in this screen are supposed to interfere with HuR-ARE recognition by binding either to the ARE or to HuR12. (3) CONA with HuR. Combinatorial on-bead libraries are screened for high affinity HuR binders with CONA. After picking of hit beads and cleavage of on-bead binders from the solid support, the compound structures are decoded by PHPLC-MS. Binding of resynthesized hit compounds to HuR is tested in solution. As the primary result, the identified compounds represent high affinity HuR binders. Functionally, these may be inhibitors of any HuR activity including ARE recognition, nucleocytoplasmic shuttling and protection of the mRNA from ARE-dependent degradation.
The RNA fraction bound y is calculated from the anisotropy data based on y=(r−rmin)/((r−rmin)+Q(rmax−r)) with r≡ measured anisotropy, rmin, rmax≡ anisotropy of the free and HuR bound RNA, respectively, Q ≡ quenching. Dissociation constants Kd are determined by nonlinear curve fitting with KMath in Mathematica 5.0.0, assuming a 1:1:1 stoichiometric, competitive inhibition.

T1 sequence (Q15717 whole entry): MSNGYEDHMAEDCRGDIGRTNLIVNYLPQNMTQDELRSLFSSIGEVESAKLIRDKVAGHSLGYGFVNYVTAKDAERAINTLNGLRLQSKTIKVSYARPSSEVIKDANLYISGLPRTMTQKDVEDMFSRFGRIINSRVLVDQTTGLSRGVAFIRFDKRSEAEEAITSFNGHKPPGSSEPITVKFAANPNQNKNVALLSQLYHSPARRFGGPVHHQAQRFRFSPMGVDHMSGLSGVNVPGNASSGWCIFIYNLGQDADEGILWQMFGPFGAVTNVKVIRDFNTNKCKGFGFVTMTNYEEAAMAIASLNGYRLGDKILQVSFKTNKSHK

Row | Kd [nM] | Compound
1 | 92 ± 22 | COc1cccc(CNC(=O)c2ccc(C(=O)NC(Cc3ccc(CN)cc3)C(=O)NCc3ccc(C)cc3)cc2)c1 (stereo not shown) [Example 3, N-[2-(4-Aminomethyl-phenyl)-1-(4-methyl-benzylcarbamoyl)-ethyl]-N′-(3-methoxy-benzyl)-terephthalamide]
2 | 103 ± 20 | COCCn1c(C(=O)CN2CCC(C(N)=O)CC2)cc(C(=O)NC(CCO)C(=O)NCCCN2CCCC2=O)c1C (stereo not shown) [Example 4, 1-{2-[4-{3-Hydroxy-1-[3-(2-oxo-pyrrolidin-1-yl)-propylcarbamoyl]-propylcarbamoyl}-1-(2-methoxy-ethyl)-5-methyl-1H-pyrrol-2-yl]-2-oxo-ethyl}-piperidine-4-carboxylic acid amide]
3 | 104 ± 14 | COc1cccc(CCn2c(C(=O)CN3CCCCC3)cc(C(=O)NC(CC(=O)O)C(=O)NCCCN3CCCC3=O)c2C)c1 (stereo not shown) [Example 5, 3-{[1-[2-(3-Methoxy-phenyl)-ethyl]-2-methyl-5-(2-piperidin-1-yl-acetyl)-1H-pyrrole-3-carbonyl]-amino}-N-[3-(2-oxo-pyrrolidin-1-yl)-propyl]-succinamic acid]
4 | 143 ± 27 | Cc1c(C(=O)NC(Cc2c[nH]c3ccccc23)C(=O)NCCCN2CCCC2=O)cc(C(=O)CN2CCCCC2)n1Cc1ccccc1 (stereo not shown) [Example 6, 1-Benzyl-2-methyl-5-(2-piperidin-1-yl-acetyl)-1H-pyrrole-3-carboxylic acid {2-(1H-indol-3-yl)-1-[3-(2-oxo-pyrrolidin-1-yl)-propylcarbamoyl]-ethyl}-amide]
